Experimental data taken from the NIST ThermoML archive (doi:10.1016/j.fluid.2017.06.022).

Experiment: xn = mol fraction of the nth substance listed
Conditions: Liquid, Bellows volumetry

C=CC [propene] + Cc1ccccc1
Conditions | mass density [kg/m3]
295.7 K, 700 kPa, x1 = 0.53 | 679.7
295.7 K, 1000 kPa, x1 = 0.53 | 680.5
295.7 K, 1400 kPa, x1 = 0.53 | 681.2
295.7 K, 1900 kPa, x1 = 0.53 | 681.6
295.7 K, 2300 kPa, x1 = 0.53 | 682.4
295.7 K, 2900 kPa, x1 = 0.53 | 683.2
295.7 K, 3400 kPa, x1 = 0.53 | 684
295.7 K, 3600 kPa, x1 = 0.53 | 684
295.7 K, 5200 kPa, x1 = 0.53 | 685.5
295.7 K, 7300 kPa, x1 = 0.53 | 688.3
295.7 K, 8600 kPa, x1 = 0.53 | 689.5
295.7 K, 10700 kPa, x1 = 0.53 | 691.9
295.7 K, 13500 kPa, x1 = 0.53 | 694.7
295.7 K, 23900 kPa, x1 = 0.53 | 704.6
295.7 K, 31000 kPa, x1 = 0.53 | 710.9
295.7 K, 37900 kPa, x1 = 0.53 | 716
295.7 K, 44100 kPa, x1 = 0.53 | 720.7
295.7 K, 51800 kPa, x1 = 0.53 | 726.4
295.7 K, 58300 kPa, x1 = 0.53 | 730.4
295.7 K, 63200 kPa, x1 = 0.53 | 733.6
295.7 K, 67000 kPa, x1 = 0.53 | 735.9
295.9 K, 200 kPa, x1 = 0.1159 | 797.6
295.9 K, 300 kPa, x1 = 0.1159 | 798.9
295.9 K, 600 kPa, x1 = 0.1159 | 799.5
295.9 K, 1300 kPa, x1 = 0.1159 | 800.1
295.9 K, 2000 kPa, x1 = 0.1159 | 800.7
295.9 K, 3500 kPa, x1 = 0.1159 | 802
295.9 K, 7200 kPa, x1 = 0.1159 | 805.2
295.9 K, 10200 kPa, x1 = 0.1159 | 807.7
295.9 K, 13500 kPa, x1 = 0.1159 | 810.3
296.4 K, 1000 kPa, x1 = 0.7612 | 606.8
296.4 K, 1400 kPa, x1 = 0.7612 | 610
296.4 K, 2200 kPa, x1 = 0.7612 | 611.2
296.4 K, 3300 kPa, x1 = 0.7612 | 613.2
296.4 K, 5200 kPa, x1 = 0.7612 | 616.4
296.4 K, 6900 kPa, x1 = 0.7612 | 619.3
296.4 K, 10300 kPa, x1 = 0.7612 | 624.6
296.4 K, 10400 kPa, x1 = 0.7612 | 624.6
296.4 K, 13800 kPa, x1 = 0.7612 | 629.7
296.4 K, 17200 kPa, x1 = 0.7612 | 634.4
296.4 K, 24100 kPa, x1 = 0.7612 | 643.5
296.4 K, 31100 kPa, x1 = 0.7612 | 652.1
296.4 K, 37700 kPa, x1 = 0.7612 | 659.4
296.4 K, 44500 kPa, x1 = 0.7612 | 666
296.4 K, 51400 kPa, x1 = 0.7612 | 672.7
296.4 K, 57800 kPa, x1 = 0.7612 | 678
296.4 K, 62900 kPa, x1 = 0.7612 | 682
296.4 K, 66900 kPa, x1 = 0.7612 | 685
324.6 K, 1700 kPa, x1 = 0.7612 | 572
324.6 K, 1900 kPa, x1 = 0.7612 | 572.3
324.6 K, 2600 kPa, x1 = 0.7612 | 574.4
324.6 K, 3600 kPa, x1 = 0.7612 | 576.9
324.6 K, 5300 kPa, x1 = 0.7612 | 580.5
324.6 K, 7000 kPa, x1 = 0.7612 | 584.1
324.6 K, 10500 kPa, x1 = 0.7612 | 591.1
324.6 K, 17400 kPa, x1 = 0.7612 | 603.7
324.6 K, 24200 kPa, x1 = 0.7612 | 614.4
324.6 K, 30900 kPa, x1 = 0.7612 | 623.8
324.6 K, 37800 kPa, x1 = 0.7612 | 632.7
324.6 K, 44500 kPa, x1 = 0.7612 | 640.5
324.6 K, 51500 kPa, x1 = 0.7612 | 648.4
324.6 K, 58400 kPa, x1 = 0.7612 | 655.7
324.6 K, 63100 kPa, x1 = 0.7612 | 660.3
324.6 K, 67000 kPa, x1 = 0.7612 | 664.1
324.8 K, 300 kPa, x1 = 0.1159 | 771
324.8 K, 600 kPa, x1 = 0.1159 | 771.6
324.8 K, 1100 kPa, x1 = 0.1159 | 772.2
324.8 K, 1600 kPa, x1 = 0.1159 | 772.8
324.8 K, 2000 kPa, x1 = 0.1159 | 773.4
324.8 K, 2500 kPa, x1 = 0.1159 | 774
324.8 K, 3300 kPa, x1 = 0.1159 | 774.6
324.8 K, 5000 kPa, x1 = 0.1159 | 776.3
324.8 K, 7000 kPa, x1 = 0.1159 | 778.7
324.8 K, 10200 kPa, x1 = 0.1159 | 781.7
324.8 K, 13500 kPa, x1 = 0.1159 | 784.7
324.8 K, 16900 kPa, x1 = 0.1159 | 787.7
324.8 K, 20400 kPa, x1 = 0.1159 | 791.4
324.8 K, 23600 kPa, x1 = 0.1159 | 793.9
324.8 K, 31300 kPa, x1 = 0.1159 | 800.7
324.8 K, 37800 kPa, x1 = 0.1159 | 805.8
374.3 K, 3700 kPa, x1 = 0.7612 | 493.5
374.3 K, 3800 kPa, x1 = 0.7612 | 494.1
374.3 K, 5300 kPa, x1 = 0.7612 | 503.1
374.3 K, 6900 kPa, x1 = 0.7612 | 511.6
374.3 K, 8400 kPa, x1 = 0.7612 | 518.3
374.3 K, 10400 kPa, x1 = 0.7612 | 526
374.3 K, 17200 kPa, x1 = 0.7612 | 547.4
374.3 K, 23900 kPa, x1 = 0.7612 | 562.2
374.3 K, 30800 kPa, x1 = 0.7612 | 574.7
374.3 K, 37700 kPa, x1 = 0.7612 | 586.8
374.3 K, 44200 kPa, x1 = 0.7612 | 596.6
375.3 K, 700 kPa, x1 = 0.1159 | 723.9
375.3 K, 900 kPa, x1 = 0.1159 | 724.4
375.3 K, 1400 kPa, x1 = 0.1159 | 725.5
375.3 K, 2000 kPa, x1 = 0.1159 | 726.5
375.3 K, 2500 kPa, x1 = 0.1159 | 727.6
375.3 K, 3400 kPa, x1 = 0.1159 | 728.6
375.3 K, 5200 kPa, x1 = 0.1159 | 731.2
375.3 K, 6900 kPa, x1 = 0.1159 | 733.8
375.3 K, 10100 kPa, x1 = 0.1159 | 737.6
375.3 K, 17200 kPa, x1 = 0.1159 | 746.2
375.3 K, 23700 kPa, x1 = 0.1159 | 753.4
375.3 K, 30800 kPa, x1 = 0.1159 | 760.7
375.3 K, 37600 kPa, x1 = 0.1159 | 767
375.4 K, 2600 kPa, x1 = 0.53 | 588.6
375.4 K, 2900 kPa, x1 = 0.53 | 589.8
375.4 K, 4300 kPa, x1 = 0.53 | 593.6
375.4 K, 6900 kPa, x1 = 0.53 | 600.6
375.4 K, 9200 kPa, x1 = 0.53 | 607.4
375.4 K, 10500 kPa, x1 = 0.53 | 609.9
375.4 K, 17900 kPa, x1 = 0.53 | 622.3
375.4 K, 23800 kPa, x1 = 0.53 | 632
375.4 K, 24100 kPa, x1 = 0.53 | 631.5
375.4 K, 30900 kPa, x1 = 0.53 | 641.7
375.4 K, 37900 kPa, x1 = 0.53 | 651.5
375.4 K, 44800 kPa, x1 = 0.53 | 659.4
375.4 K, 51200 kPa, x1 = 0.53 | 666.4
375.4 K, 58800 kPa, x1 = 0.53 | 674.3
375.4 K, 63200 kPa, x1 = 0.53 | 678.1
375.4 K, 67400 kPa, x1 = 0.53 | 682
